Source: ChEMBL document CHEMBL1128049, “5-cyano-1-[3-(N-methylpyrrolidin-2R-ylmethyl)indol-5-yl] benzimidazole (CP-161,242): A potent, centrally active 5-HT1D receptor agonist and benzodiazepine partial agonist” (Bioorg Med Chem Lett, 1995)

Experiments:
[1] = molecular target: GABA-A receptor; anion channel; assay: In vitro displacement of [3H]flunitrazepam from GABA-A central benzodiazepine receptor of guinea pig cerebellum; assay type: tissue-based, Cavia porcellus
[2] = molecular target: 5-hydroxytryptamine receptor 1D (Cavia porcellus, UniProt Q60484); assay: Compound was tested for the inhibition of forskolin-stimulated adenylate cyclase at 5-hydroxytryptamine 1D receptor in guinea pig substantia nigra
[3] = molecular target: T1, 5-hydroxytryptamine receptor 1A (Rattus norvegicus, UniProt P19327); assay: Tested in vitro for receptor binding affinity to 5-hydroxytryptamine 1A receptor in rat cortex using [3H]OH-DPAT radioligand
T1 sequence (P19327 whole entry): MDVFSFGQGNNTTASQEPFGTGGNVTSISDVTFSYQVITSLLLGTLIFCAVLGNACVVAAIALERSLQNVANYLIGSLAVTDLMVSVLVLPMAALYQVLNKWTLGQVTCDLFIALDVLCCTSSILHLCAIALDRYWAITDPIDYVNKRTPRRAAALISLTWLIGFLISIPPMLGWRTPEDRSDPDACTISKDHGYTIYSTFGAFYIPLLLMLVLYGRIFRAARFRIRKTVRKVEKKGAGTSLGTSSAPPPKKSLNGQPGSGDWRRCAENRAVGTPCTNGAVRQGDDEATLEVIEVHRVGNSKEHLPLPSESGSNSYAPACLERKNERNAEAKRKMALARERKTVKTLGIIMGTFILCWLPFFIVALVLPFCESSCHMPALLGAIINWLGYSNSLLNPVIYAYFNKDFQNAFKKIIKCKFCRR

Sequence of 5-hydroxytryptamine receptor 1D (Q60484 whole entry): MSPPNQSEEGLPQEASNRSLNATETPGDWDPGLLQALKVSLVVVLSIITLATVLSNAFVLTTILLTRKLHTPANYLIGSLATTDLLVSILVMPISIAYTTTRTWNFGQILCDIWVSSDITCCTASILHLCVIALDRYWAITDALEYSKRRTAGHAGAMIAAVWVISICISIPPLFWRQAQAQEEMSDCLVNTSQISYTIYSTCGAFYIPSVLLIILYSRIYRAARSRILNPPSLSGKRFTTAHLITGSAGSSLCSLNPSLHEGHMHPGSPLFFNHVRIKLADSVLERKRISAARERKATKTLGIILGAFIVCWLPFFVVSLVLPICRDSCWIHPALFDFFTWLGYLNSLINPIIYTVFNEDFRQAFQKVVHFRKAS

## CN1CCC[C@@H]1Cc1c[nH]c2ccc(-n3cnc4cc(C#N)ccc43)cc12
[1]
  IC50: 3.3 nM
[2]
  EC50: 0.042 nM
[3]
  IC50: 20 nM

## CN(C)CCc1c[nH]c2ccc(-n3cnc4cccnc43)cc12
[1]
  IC50: 89 nM
[2]
  EC50: 14 nM
[3]
  IC50: 210 nM

## NCCc1c[nH]c2ccc(O)cc12 [SEROTONIN]
[2]
  EC50: 8.5 nM
